Results taken from ChEMBL document CHEMBL1153604, “Inhibition of Pseudomonas aeruginosa quorum sensing by AI-2 analogs” (Bioorg Med Chem Lett, 2009).
Calls of active or inactive are those of the source. The rule behind the calls is not given here.

Assays:
[1] = target: Autoinducer 2-binding periplasmic protein LuxP (Vibrio harveyi, UniProt P54300); assay: Agonist activity at Vibrio harveyi BB170 LuxP assessed as inhibition of autoinducer-2-induced quorum sensing after 5 hrs by luminescence assay; type: functional
Autoinducer 2-binding periplasmic protein LuxP, sequence (P54300 whole entry): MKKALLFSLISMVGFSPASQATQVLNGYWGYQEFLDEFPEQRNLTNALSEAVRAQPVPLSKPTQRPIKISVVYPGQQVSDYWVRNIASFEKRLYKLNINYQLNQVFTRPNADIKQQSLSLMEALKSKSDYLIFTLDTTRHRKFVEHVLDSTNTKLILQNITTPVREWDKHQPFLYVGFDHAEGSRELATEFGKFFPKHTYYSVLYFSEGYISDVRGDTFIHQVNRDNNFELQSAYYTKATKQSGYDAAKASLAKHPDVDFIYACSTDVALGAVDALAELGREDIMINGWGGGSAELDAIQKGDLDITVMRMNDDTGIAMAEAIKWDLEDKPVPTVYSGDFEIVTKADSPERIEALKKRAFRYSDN

[2] = system: Pseudomonas aeruginosa PAO1; assay: Inhibition of wild type Pseudomonas aeruginosa PAO1-luxCDABE quorm sensing measured after 20 mins by luminescence assay
Pseudomonas aeruginosa [3] = assay: Inhibition of Pseudomonas aeruginosa PAO-JP2-luxCDABE quorm sensing at 200 uM measured every 20 min by luminescence assay in presence of 3-oxo-C12-HSL
Pseudomonas aeruginosa [4] = assay: Inhibition of wild type Pseudomonas aeruginosa PAO1-luxCDABE growth at >200 uM by luminescence assay; type: functional, organism-based
Pseudomonas aeruginosa [5] = assay: Inhibition of Pseudomonas aeruginosa PAO-JP2-luxCDABE quorm sensing measured every 20 mins in presence of 3-oxo-C12-HSL
[6] = system: Pseudomonas aeruginosa PAO1; assay: Inhibition of wild type Pseudomonas aeruginosa PAO1 assessed as reduction in pyocyanin production at 100 uM after 19 hrs […]; parameters: scale not given: the % may be the effect or the level left
[7] = target: Autoinducer 2-binding periplasmic protein LuxP (Vibrio harveyi) (UniProt P54300); assay: Agonist activity at Vibrio harveyi MM30 LuxP assessed as inhibition of autoinducer-2-induced quorum sensing; type: functional
Autoinducer 2-binding periplasmic protein LuxP (Vibrio harveyi), sequence (P54300 whole entry): as above

Pseudomonas aeruginosa [8] = assay: Inhibition of wild type Pseudomonas aeruginosa PAO1 growth at 100 uM; type: functional, organism-based

| SMILES | EC50 [1] [µM] | inhibition [2] [%] | inhibition (Pseudomonas aeruginosa [3]) [%] | inhibition (Pseudomonas aeruginosa [4]) | Activity (Pseudomonas aeruginosa [5]) | Activity [6] [%] | Activity [7] | inhibition (Pseudomonas aeruginosa [8]) |
| --- | --- | --- | --- | --- | --- | --- | --- | --- |
| CCCCC(=O)C(=O)[C@@H](O)CO | 1.01 | 40 | 40 | inactive | Dose-dependent effect | 59 | inactive | – |
| CCCC(=O)C(=O)[C@@H](O)CO | 0.75 | – | – | – | – | – | inactive | inactive |
| CCCCCC(=O)C(=O)[C@@H](O)CO | 1.35 | 40 | 40 | inactive | Dose-dependent effect | 53 | inactive | – |
| CCCCCCC(=O)C(=O)[C@@H](O)CO | 1.52 | – | – | – | – | – | inactive | inactive |
| CCCCCCCC(=O)C(=O)[C@@H](O)CO | 1.81 | – | – | – | – | – | inactive | inactive |
| CC(=O)C(=O)[C@@H](O)CO | 0.15 | – | – | – | – | – | inactive | inactive |
| CCC(=O)C(=O)[C@@H](O)CO | 0.58 | – | – | – | – | – | Active | inactive |
